Read-outs that look alike come from different tables or passages of the source. Residues, ends and D or L forms follow the SMILES beside them.
How the values were obtained:
[1] = Biodistribution in normal C57 mice; assay type: in vivo; settings: C57, mouse, lung, iv, 0.037 MBq, total radioactivity
Description: (§1) Biodistribution Studies: All the animal studies were conducted in compliance with Institutional Animal Care and Use Committee approval. B16/F10 pulmonary metastatic melanoma model was established by injecting 0.2 million of cultured B16/F10 cells into each C57 mouse (Harlan, Indianapolis, Ind.) through the tail vein. The B16/F10 pulmonary metastatic melanoma-bearing C57 mice were used for biodistribution studies 16 days after the cell injection. The pharmacokinetics of ^111In-DOTA-GlyGlu-CycMSH was determined in B16/F10 pulmonary metastatic melanoma-bearing and normal C57 mice. HPLC-purified 0.037 MBq of ^111In-DOTA-GlyGlu-CycMSH was injected into each mouse through the tail vein. Groups of 5 mice were sacrificed at 2, 4 and 24 h post-injection, and tumors and organs of interest were harvested, weighed and counted. Blood values were taken as 6.5% of the whole-body weight. Statistical analysis was performed using the Student's t-test for unpaired data.

[2] = system: B16/F10 pulmonary metastatic melanoma-bearing C57 mice; experiment: Biodistribution in B16/F10 pulmonary metastatic melanoma-bearing C57 mice; assay type: in vivo, mouse
Description: as §1

[3] = as above; assay type: in vivo, mouse; settings: C57, mouse, iv, 0.037 MBq, total radioactivity
Description: as §1

CCCC[C@@H]1NC(=O)[C@@H](NC(=O)[C@H](CCC(=O)O)NC(=O)CNC(=O)CN2CCN(CC(=O)O)CCN(CC(=O)O)CCN(CC(=O)O)CC2)CCCCNC(=O)[C@H](CC(=O)O)NC(=O)[C@H](C(C)C)NC(=O)[C@@H]2CCCN2C(=O)[C@H](CCCNC(=N)N)NC(=O)CNC(=O)[C@H](Cc2c[nH]c3ccccc23)NC(=O)[C@H](CCCNC(=N)N)NC(=O)[C@@H](Cc2ccccc2)NC(=O)[C@H](Cc2c[nH]cn2)NC(=O)[C@H](CCC(=O)O)NC1=O [^111In-DOTA-GlyGlu-CycMSH, metal not drawn] (HELM PEPTIDE1{[O=C(O)CN1CCN(CC(=O)O)CCN(CC(=O)[*:2])CCN(CC(=O)O)CC1].G.E.K.[Nle].E.H.[dF].R.W.G.R.P.V.D}$PEPTIDE1,PEPTIDE1,4:R3-15:R2$$$V2.0)
tissue uptake at 2 h ([1]; 2 h post-injection): 0.08 ± 0.08 %ID/g | tissue uptake at 4 h ([1]; 4 h post-injection): 0.05 ± 0.05 %ID/g | tissue uptake at 24 h ([1]; 24 h post-injection): 0.03 ± 0.02 %ID/g | uptake in metastatic melanoma-bearing lung relative to normal lung ([2]; 2 h post-injection): 25.0 times | uptake in metastatic melanoma-bearing lung relative to normal lung ([2]; 4 h post-injection): 36.6 times | uptake in metastatic melanoma-bearing lung relative to normal lung ([2]; 24 h post-injection): 9.7 times | dose excreted ([3]; in vivo, at 24 h post-injection, read-out: injected radioactivity cleared out the body): ~96% | tissue uptake at 2 h ([3]; metastatic melanoma-bearing lung, 2 h post-injection, 16 days post the cell injection): 2 ± 0.74 %ID/g | tissue uptake at 4 h ([3]; metastatic melanoma-bearing lung, 4 h post-injection, 16 days post the cell injection): 1.83 ± 0.12 %ID/g | tissue uptake at 24 h ([3]; metastatic melanoma-bearing lung, 24 h post-injection, 16 days post the cell injection): 0.29 ± 0.06 %ID/g | dose excreted ([3]; urine, by 2 h post-injection, read-out: injected radioactivity cleared through the urinary system): ~84%
